These results are taken from patent US11180499B2, “Phosphodiesterase inhibitors” (BOARD OF REGENTS OF THE UNIVERSITY OF NEBRASKA, priority 2018, dated 2021).

The subject of one test is WT mice. The experiment in a line: Locomotor analysis (cocaine-induced hyperlocomotion, open field). The test is classed as in vivo, mouse. To be noted: for Locomotor activity of compound alone: Compound 8 + saline. The method, then:
Locomotor analysis: WT mice (both gender, n=6-8) were divided into four groups receiving various treatments: (1) vehicle+saline; (2) vehicle+cocaine; (3) Compound 8+saline; and (4) Compound 8+cocaine. Cocaine was administered at 20 mg/kg (i.p.) and Compound 8 was used at two different doses 5 or 10 mg/kg (i.p.). Compound 8 was firstly injected into the mice and 30 min later followed with cocaine administration. To investigate the effects of Compound 8 on acute locomotor response, immediately following cocaine injection, mice were put into the open field apparatus (Truescan, Coulbourn instrument) to detect locomotor activity for 45 min. The TruScan photobeam activity system consists of a clear arena with infrared sensors located on a ring 3 cm above floor level. There are 16 beams spaced 1 inch apart on the sensor ring that are used to detect movements by mice. […] To investigate the effects of Compound 8 on locomotor sensitization, mice were repeatedly injected with Compound 8 and cocaine for 7 consecutive days and the locomotor responses were recorded every other day.

For another test, the target named is T1, PDE4B1 (Homo sapiens, UniProt Q07343).
T1 construct: expressed in transfected cells; host or cells: HEK293
The experiment in a line: Cell-based PDE4B assay (HEK293, PDE4B1 vector, CRE luciferase reporter, forskolin). To be noted: versus apremilast. The method, then: Cells were incubated at 37° C. and 5% CO2 overnight. […] Cell based assays were performed in triplicate at each concentration.

Another test concerns the target T2, PDE4B (Homo sapiens, UniProt Q07343).
T2 construct: purchased BPS Bioscience, San Diego
Description: In vitro PDE4 inhibition study, PDE4B (BPS Bioscience). The format is binding. Here is the method:
The IC50 values of Compound 8 on PDE4 isoforms were determined by BPS Bioscience, San Diego. In brief, coat proteins (PDE4 isoforms) were added into the plate in a volume of 50 μl (2-5 ng/μl) at 4° C. overnight. The next day, Compound 8 was added to the coated plate with varying concentrations followed by addition of the corresponding biotinylated binding partner. The reaction was incubated for 2 hours at room temperature. Binding assays were performed in duplicate at each concentration and the plates were read by using Synergy 2 BioTek plate reader. The luminescence data were analyzed using the Graphpad Prism. […] Data for a reference compounds or antibodies are included as a control for inhibition. “ND” indicates the compound was not tested.

Test [1] concerns cocaine self-administered mice. The experiment in a line: Cocaine self-administration (seeking and taking behavior). The format is in vivo, mouse. To be noted: i.p., 30 min before 2 h FR1 session. The method, then:
(a) Surgery procedure: WT mice (10-12 weeks, both genders) were implanted with permanently indwelling catheters (Plastics one) into the right jugular vein under a combination of ketamine hydrochloride ([…], i. p.) and xylazine ([…], i.p.) anesthesia. The catheter is tied to the vein with surgical silk and is passed subcutaneously to the back of the mouse where the catheter is affixed to a small plastic pedestal (26 G, Plastics One Company). After the surgery, the catheters were flushed daily with heparin (30 IU/mi) to avoid clotting. Mice were allowed at least 7 days of recovery in their home before the start of the experiments.
(b) The establishment of cocaine self-administered mice: Mice were individually put into sound-mitigation cubicles (Coulbourne Instrument) for the training of self-administered cocaine (1.0 mg/kg/infusion). […] A timeout period of 15 seconds followed each drug injection. All responses were recorded automatically using a computer interface and Graphic State Notation 4 software (Coulbourne Instrument). Mice were trained to self-administer cocaine during one daily session under a fixed ratio 1 (FR1) schedule. […]
(c) The effects of Compound 8 on cocaine-mediated seeking and taking behavior. […] The numbers of active nose-poke and cocaine infusions were recorded. […]

T1 sequence (Q07343 whole entry): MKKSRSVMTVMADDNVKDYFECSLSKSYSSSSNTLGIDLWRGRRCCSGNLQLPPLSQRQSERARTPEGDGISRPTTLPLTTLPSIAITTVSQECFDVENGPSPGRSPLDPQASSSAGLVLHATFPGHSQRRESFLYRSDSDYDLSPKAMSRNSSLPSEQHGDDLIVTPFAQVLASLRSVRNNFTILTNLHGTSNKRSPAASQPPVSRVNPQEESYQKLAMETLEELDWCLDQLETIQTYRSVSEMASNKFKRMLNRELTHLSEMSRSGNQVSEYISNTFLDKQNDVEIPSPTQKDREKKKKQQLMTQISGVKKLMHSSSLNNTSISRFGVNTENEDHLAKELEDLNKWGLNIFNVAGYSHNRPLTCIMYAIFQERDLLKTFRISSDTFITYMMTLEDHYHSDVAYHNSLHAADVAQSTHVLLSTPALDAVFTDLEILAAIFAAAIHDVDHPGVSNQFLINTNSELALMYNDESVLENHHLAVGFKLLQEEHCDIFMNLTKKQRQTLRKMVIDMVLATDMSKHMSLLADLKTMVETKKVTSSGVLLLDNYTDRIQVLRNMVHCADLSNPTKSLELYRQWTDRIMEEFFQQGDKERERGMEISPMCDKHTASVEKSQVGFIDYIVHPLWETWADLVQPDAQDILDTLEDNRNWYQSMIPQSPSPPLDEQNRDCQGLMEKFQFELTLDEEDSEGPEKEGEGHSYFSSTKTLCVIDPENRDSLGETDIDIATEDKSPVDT
T2 sequence (Q07343 whole entry): as above

Regarding `O=C(c1cc2cccnc2n1-c1ccc(Cl)c(Cl)c1)N1CC(F)(F)C1` [Compound 8, (1-(3,4-dichlorophenyl)-1H-pyrrolo[2,3-b]pyridin-2-yl)(3,3-difluoroazetidin-1-yl)methanone], the Cocaine-induced hyperlocomotion entry with WT mice (5 or 10 mg/kg i.p. 30 min before cocaine 20 mg/kg i.p.) is “inhibited the cocaine induce hyperlocomotion”. Moreover, the “Locomotor activity of compound alone” value is given as “without any increase alone” with WT mice and “without any increase by itself” in the test on WT mice (listed as compound 8). The “EC50 for PDE4B inhibition relative to apremilast” value on PDE4B1 was “ten-fold lower EC50”. Also, the 50% inhibitory concentration (IC50) at PDE4B is 0.14 µM. In test [1], the “Cocaine-mediated seeking and taking behavior (active nose-pokes, cocaine infusions)” value is on record as “significantly decreased”.

Broadly, the IC50 is the point on the concentration scale where inhibition reaches its midpoint.
